Reference: publication PMC12670164, “In vitro and clinical data demonstrate negligible risk of drug–drug interactions with opelconazole, a novel inhaled antifungal agent” (Journal of Antimicrobial Chemotherapy, 2025)

Columns and labels:
Test in all cases: Transporter inhibition
Format in all cases: in vitro ADME
BSEP = biological target: T1, BSEP (Homo sapiens, UniProt O95342); conditions: 0.5 and 5 μM tested
T1 construct: expressed in transfected cells; host or cells: Sf9 membrane vesicles
Procedure: (§1) Human transporter protein interactions with opelconazole as a potential substrate and/or inhibitor were assessed for the following key carrier transporters: organic anion transporters, OAT1 and OAT3; organic cation transporters, OCT1 and OCT2; OATP1B1 and OATP1B3; multidrug and toxin extrusion, MATE-1 and MATE2-K; key ATP-binding cassette (ABC) transporters including P-gp, breast cancer resistance protein (BCRP) and bile salt export pump (BSEP). Two concentrations of opelconazole, 0.5 and 5 μM, were tested using MDCKII cells, human embryonic kidney 293 cells and BSEP-transfected sf9 membrane vesicles and then analysed by LC-tandem MS to determine transporter inhibition and whether opelconazole was a transporter substrate. The viability of experimental test systems was confirmed with controls and known probe substrates and probe inhibitors.

MATE2-K = biological target: T2, MATE2-K (Homo sapiens, UniProt Q86VL8)
T2 construct: expressed in transfected cells
Procedure: as §1

OCT2 = biological target: T3, OCT2 (Homo sapiens, UniProt O15244)
T3 construct: expressed in transfected cells
T3 sequence (O15244 1-555): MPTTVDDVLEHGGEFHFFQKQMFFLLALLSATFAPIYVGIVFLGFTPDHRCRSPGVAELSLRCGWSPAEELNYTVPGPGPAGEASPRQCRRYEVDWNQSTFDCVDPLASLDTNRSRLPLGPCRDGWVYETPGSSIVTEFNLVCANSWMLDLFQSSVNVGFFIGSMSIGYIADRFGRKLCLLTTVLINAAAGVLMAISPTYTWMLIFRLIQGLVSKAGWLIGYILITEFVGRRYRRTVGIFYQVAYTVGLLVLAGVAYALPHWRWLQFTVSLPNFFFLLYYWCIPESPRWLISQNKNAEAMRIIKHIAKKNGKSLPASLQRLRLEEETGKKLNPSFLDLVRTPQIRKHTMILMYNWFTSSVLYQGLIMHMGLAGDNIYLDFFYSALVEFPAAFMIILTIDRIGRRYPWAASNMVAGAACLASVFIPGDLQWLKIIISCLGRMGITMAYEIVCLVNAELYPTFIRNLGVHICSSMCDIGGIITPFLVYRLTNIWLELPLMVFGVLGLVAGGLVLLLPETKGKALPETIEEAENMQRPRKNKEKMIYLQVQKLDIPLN
Procedure: as §1

OCT1 = biological target: T4, OCT1 (Homo sapiens, UniProt O15245); conditions: 0.5 and 5 μM tested
T4 construct: expressed in transfected cells
T4 sequence (O15245 1-554): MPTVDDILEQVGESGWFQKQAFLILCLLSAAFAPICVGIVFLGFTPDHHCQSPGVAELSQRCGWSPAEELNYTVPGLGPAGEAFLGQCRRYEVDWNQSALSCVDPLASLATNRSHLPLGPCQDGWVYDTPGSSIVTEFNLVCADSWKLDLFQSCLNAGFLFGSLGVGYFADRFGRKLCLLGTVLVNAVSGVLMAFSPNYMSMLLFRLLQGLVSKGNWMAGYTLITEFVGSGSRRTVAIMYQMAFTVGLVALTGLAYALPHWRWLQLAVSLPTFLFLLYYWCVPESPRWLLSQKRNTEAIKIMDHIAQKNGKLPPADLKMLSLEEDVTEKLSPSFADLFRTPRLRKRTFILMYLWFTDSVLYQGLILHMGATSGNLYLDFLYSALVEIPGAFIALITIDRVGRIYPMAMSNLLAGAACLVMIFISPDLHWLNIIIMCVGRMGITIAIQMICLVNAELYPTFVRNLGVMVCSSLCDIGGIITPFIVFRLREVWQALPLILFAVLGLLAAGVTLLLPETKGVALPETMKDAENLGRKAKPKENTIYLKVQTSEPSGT
Procedure: as §1

OATP1B1 = biological target: T5, OATP1B1 (Homo sapiens, UniProt Q9Y6L6); conditions: 0.5 and 5 μM tested
T5 construct: expressed in transfected cells
T5 sequence (Q9Y6L6 1-691): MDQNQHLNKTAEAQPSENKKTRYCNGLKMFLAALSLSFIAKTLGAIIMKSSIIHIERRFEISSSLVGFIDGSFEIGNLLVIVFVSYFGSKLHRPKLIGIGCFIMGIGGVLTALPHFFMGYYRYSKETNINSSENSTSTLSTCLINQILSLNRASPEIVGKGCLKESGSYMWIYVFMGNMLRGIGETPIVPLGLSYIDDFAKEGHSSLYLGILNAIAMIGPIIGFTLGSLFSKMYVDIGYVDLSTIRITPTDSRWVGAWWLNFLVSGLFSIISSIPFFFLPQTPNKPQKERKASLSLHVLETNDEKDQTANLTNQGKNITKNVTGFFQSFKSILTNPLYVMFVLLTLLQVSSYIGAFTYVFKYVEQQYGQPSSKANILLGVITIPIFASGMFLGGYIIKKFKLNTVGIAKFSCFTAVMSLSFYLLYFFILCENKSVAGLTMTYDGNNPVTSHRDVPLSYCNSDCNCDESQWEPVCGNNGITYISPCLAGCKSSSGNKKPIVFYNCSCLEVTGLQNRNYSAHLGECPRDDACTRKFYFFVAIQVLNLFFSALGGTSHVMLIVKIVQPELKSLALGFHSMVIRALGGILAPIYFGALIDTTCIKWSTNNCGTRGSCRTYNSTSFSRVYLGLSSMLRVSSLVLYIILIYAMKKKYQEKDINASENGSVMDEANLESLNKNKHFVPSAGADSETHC
Procedure: as §1

T2 sequence (Q86VL8 1-566 isoform Q86VL8-3): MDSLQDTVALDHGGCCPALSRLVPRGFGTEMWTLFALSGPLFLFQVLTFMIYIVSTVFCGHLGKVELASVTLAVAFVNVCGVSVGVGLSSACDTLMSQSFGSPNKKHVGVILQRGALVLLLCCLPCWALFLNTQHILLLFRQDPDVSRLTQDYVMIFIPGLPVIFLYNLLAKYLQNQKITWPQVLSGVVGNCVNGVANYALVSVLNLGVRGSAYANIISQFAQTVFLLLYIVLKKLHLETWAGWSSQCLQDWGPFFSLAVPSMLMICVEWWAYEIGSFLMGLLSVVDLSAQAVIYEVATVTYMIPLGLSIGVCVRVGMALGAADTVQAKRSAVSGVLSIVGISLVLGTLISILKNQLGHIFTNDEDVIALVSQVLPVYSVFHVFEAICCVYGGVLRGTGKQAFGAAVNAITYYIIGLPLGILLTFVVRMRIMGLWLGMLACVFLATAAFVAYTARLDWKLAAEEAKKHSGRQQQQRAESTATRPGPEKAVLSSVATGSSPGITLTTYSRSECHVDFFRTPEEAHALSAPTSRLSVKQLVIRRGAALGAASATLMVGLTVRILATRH
T1 sequence (O95342 whole entry): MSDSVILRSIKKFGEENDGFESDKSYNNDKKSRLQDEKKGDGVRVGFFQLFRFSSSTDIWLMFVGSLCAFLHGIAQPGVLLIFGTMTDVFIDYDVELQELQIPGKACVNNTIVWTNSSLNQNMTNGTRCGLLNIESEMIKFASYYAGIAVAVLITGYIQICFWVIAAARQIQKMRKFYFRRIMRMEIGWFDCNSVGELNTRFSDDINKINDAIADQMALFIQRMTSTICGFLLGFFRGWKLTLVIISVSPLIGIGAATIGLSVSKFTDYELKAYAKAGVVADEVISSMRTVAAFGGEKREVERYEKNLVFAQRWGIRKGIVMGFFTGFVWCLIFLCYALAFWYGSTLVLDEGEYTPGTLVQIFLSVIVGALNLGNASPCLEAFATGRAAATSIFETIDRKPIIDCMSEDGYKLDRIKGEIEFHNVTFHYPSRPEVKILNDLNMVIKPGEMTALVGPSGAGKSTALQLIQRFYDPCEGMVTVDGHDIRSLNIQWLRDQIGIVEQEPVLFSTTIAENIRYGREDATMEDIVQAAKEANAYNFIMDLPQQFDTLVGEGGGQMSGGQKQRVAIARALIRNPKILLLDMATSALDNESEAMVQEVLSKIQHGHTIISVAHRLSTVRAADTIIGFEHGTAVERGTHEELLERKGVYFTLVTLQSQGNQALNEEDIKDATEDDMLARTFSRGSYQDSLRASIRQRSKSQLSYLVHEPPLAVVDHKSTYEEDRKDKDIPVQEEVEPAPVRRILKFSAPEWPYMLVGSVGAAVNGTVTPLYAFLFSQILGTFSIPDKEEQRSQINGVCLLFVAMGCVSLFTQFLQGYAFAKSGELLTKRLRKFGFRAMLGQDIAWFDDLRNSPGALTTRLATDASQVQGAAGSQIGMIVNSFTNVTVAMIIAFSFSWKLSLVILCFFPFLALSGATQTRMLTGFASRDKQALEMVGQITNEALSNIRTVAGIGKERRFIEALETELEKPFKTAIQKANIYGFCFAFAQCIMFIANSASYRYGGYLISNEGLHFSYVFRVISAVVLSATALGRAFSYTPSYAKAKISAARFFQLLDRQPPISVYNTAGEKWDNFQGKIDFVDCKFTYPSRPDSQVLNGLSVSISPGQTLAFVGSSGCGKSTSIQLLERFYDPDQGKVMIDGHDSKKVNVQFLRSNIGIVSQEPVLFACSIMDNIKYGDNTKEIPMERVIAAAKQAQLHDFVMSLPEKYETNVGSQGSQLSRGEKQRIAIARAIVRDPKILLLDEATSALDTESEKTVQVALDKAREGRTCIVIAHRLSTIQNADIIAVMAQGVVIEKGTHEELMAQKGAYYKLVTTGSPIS

Cc1cc(N2CCN(c3ccc(C(=O)Nc4ccc(F)cc4)cc3)CC2)ccc1OC[C@@H]1CO[C@@](Cn2cncn2)(c2ccc(F)cc2F)C1 [opelconazole]
inhibitory interaction with BSEP (BSEP): negligible inhibitory interactions
inhibition of MATE2-K relative to solvent control (MATE2-K; 0.5 μM opelconazole): 19%
inhibition of MATE2-K relative to solvent control (MATE2-K; 5 μM opelconazole): 52%
inhibitory interaction with OCT2 (OCT2; 0.5 μM opelconazole): negligible inhibitory interactions
inhibition of OCT2 relative to solvent control (OCT2; 5 μM opelconazole): 39%
inhibitory interaction with OCT1 (OCT1): negligible inhibitory interactions
inhibitory interaction with OATP1B1 (OATP1B1): negligible inhibitory interactions
